The values below are quoted from earlier work in patent US10493103B2, “Peroxide formulations and methods and applicators for using the same” (ACLARIS THERAPEUTICS, INC., priority 2014, dated 2019).

Read-outs that look alike come from different tables or passages of the source.

The subject of this series is seborrheic keratosis.
[1] abbreviates: applied once daily for 16 weeks.

`CC(O)C(=O)O.N` (stereo not shown) [ammonium lactate]: the “effectiveness in seborrheic keratosis” value (in vivo) was “ineffective”.
Turning to `CC(C)Cn1cnc2c(N)nc3ccccc3c21` [imiquimod cream, imiquimod], the “effectiveness in seborrheic keratosis” value under setting [1] was “ineffective”.
For the molecule `CCOC(=O)c1ccc(C#Cc2ccc3c(c2)C(C)(C)CCS3)nc1` [tazarotene cream, tazarotene], the “effectiveness in seborrheic keratosis” value under setting [1] is “ineffective”.
For the molecule `C=C1/C(=C\C=C2/CCC[C@]3(C)[C@@H]([C@H](C)/C=C/[C@@H](O)C4CC4)CC[C@@H]23)C[C@@H](O)C[C@@H]1O` [calcipotriene ointment, calcipotriene], the “effectiveness in seborrheic keratosis” value under setting [1] is “ineffective”.
Regarding `C=C1CC[C@H](O)C/C1=C/C=C1\CCC[C@]2(C)[C@@H]([C@H](C)CCCC(C)C)CC[C@@H]12` [topical vitamin D3 ointment, vitamin D3], the “patients with an 80% or more improvement in lesions” value (once or twice daily for an average of 7.3 months (range 3-12 months)) is on record as 30%.
Regarding `CCOC(=O)c1ccc(C#Cc2ccc3c(c2)C(C)(C)CCS3)nc1` [tazarotene 0.1%, tazarotene], the complications of therapy result (applied twice daily) is “burning, pruritus and redness”. Moreover, the subjects with efficacy (applied twice daily, off-label, 7/15 subjects) is listed as 47%.
